What all share (format): functional
Experiment [1] relates to Staphylococcus aureus. Description: Antimicrobial activity against methicillin-resistant Staphylococcus aureus Chaoyang clinical isolate after 16 hrs by broth microdilution method. On the technique in general: Broth dilution looks for growth in wells or tubes with falling amounts of substance.
The test system of experiment [2] is Staphylococcus aureus. Description: Antimicrobial activity against Staphylococcus aureus ATCC 6538 after 16 hrs by broth microdilution method. The following applies: ATCC 6538, 16 h.
In the next experiment the test system is Bacillus spizizenii. Description: Antimicrobial activity against Bacillus subtilis ATCC 6633 after 16 hrs by broth microdilution method. The following applies: ATCC 6633, 16 h.
Experiment [3] has as its system Enterococcus faecalis. Nature of the experiment: Antimicrobial activity against vancomycin-susceptible Enterococcus faecalis after 16 hrs by broth microdilution method.
Experiment [4] deals with Enterococcus faecalis. Nature of the experiment: Antimicrobial activity against Enterococcus faecalis VRE-309 after 16 hrs by broth microdilution method. The following applies: VRE-309, 16 h.
The subject of the next experiment is Pseudomonas aeruginosa. Description: Antimicrobial activity against Pseudomonas aeruginosa PAO1 after 16 hrs by broth microdilution method. The following applies: PAO1, 16 h.
In a further experiment the test system is Klebsiella pneumoniae. Nature of the experiment: Antimicrobial activity against Klebsiella pneumoniae KP-249 clinical isolate after 16 hrs by broth microdilution method. The following applies: KP-249, 16 h.
Experiment [5] relates to Staphylococcus aureus. Description: Antimicrobial activity against methicillin-resistant Staphylococcus aureus 309-4 clinical isolate after 16 hrs by broth microdilution method. The following applies: 309-4, 16 h.
Experiment [6] deals with Staphylococcus aureus. Nature of the experiment: Antimicrobial activity against methicillin-resistant Staphylococcus aureus 6281 clinical isolate after 16 hrs by broth microdilution method. The following applies: Staphylococcus aureus, 6281, 16 h.
Experiment [7] deals with Staphylococcus aureus. Description: Antimicrobial activity against methicillin-resistant Staphylococcus aureus 309-8 clinical isolate after 16 hrs by broth microdilution method. The following applies: 309-8, 16 h.
The test system of experiment [8] is Staphylococcus aureus. Nature of the experiment: Antimicrobial activity against methicillin-resistant Staphylococcus aureus 6-42 clinical isolate after 16 hrs by broth microdilution method. The following applies: 6-42, 16 h.
Experiment [9] has as its system Staphylococcus aureus. Description: Antimicrobial activity against methicillin-resistant Staphylococcus aureus 8-21 clinical isolate after 16 hrs by broth microdilution method. The following applies: 8-21, 16 h.
Experiment [10] has as its system Staphylococcus aureus. Description: Antimicrobial activity against methicillin-resistant Staphylococcus aureus 309-3 clinical isolate after 16 hrs by broth microdilution method. The following applies: 309-3, 16 h.
Experiment [11] concerns Staphylococcus aureus. Nature of the experiment: Antimicrobial activity against methicillin-resistant Staphylococcus aureus 309-1 clinical isolate after 16 hrs by broth microdilution method. The following applies: 309-1, 16 h.
For experiment [12], the system named is Staphylococcus aureus. Description: Antimicrobial activity against methicillin-resistant Staphylococcus aureus 309-7 clinical isolate after 16 hrs by broth microdilution method. The following applies: 309-7, 16 h.
The test system of experiment [13] is Staphylococcus aureus. Description: Antimicrobial activity against methicillin-resistant Staphylococcus aureus 8-24 clinical isolate after 16 hrs by broth microdilution method. The following applies: 8-24, 16 h.
For experiment [14], the system named is Staphylococcus aureus. Nature of the experiment: Antimicrobial activity against methicillin-resistant Staphylococcus aureus 309-6 clinical isolate after 16 hrs by broth microdilution method. The following applies: 309-6, 16 h.

Converted amounts (≈) assume the structure as drawn.

What is called MIC is the lowest concentration that inhibits growth of the organism. Low values mean a more susceptible organism, high ones a less susceptible organism. With `COc1cccc(NC(=S)N/N=C2\C(=O)Nc3c(Cl)cccc32)c1`, the minimum inhibitory concentration (MIC) against Staphylococcus aureus [1] is 0.78 mg/L (≈ 2.16 µM); in the experiment on Staphylococcus aureus [2], 3.12 mg/L (≈ 8.65 µM); with Bacillus spizizenii, at most 0.78 mg/L; in the experiment on Enterococcus faecalis [3], over 100 mg/L; in the experiment on Enterococcus faecalis [4], over 100 mg/L; in the experiment with Pseudomonas aeruginosa it was over 100 mg/L. For the same compound, the MIC against Klebsiella pneumoniae is over 100 mg/L; against Staphylococcus aureus [5], 0.78 mg/L (≈ 2.16 µM); in the experiment on Staphylococcus aureus [6] it was 6.25 mg/L (≈ 17.3 µM); against Staphylococcus aureus [7], 1.56 mg/L (≈ 4.32 µM); in the experiment with Staphylococcus aureus [8] it was 0.78 mg/L (≈ 2.16 µM); against Staphylococcus aureus [9], 1.56 mg/L (≈ 4.32 µM). The MIC against Staphylococcus aureus [10] came out at 1.56 mg/L (≈ 4.32 µM); in the experiment on Staphylococcus aureus [11], 1.56 mg/L (≈ 4.32 µM); in the experiment on Staphylococcus aureus [12], 0.78 mg/L (≈ 2.16 µM); in the experiment on Staphylococcus aureus [13] it was 1.56 mg/L (≈ 4.32 µM); against Staphylococcus aureus [14] it was 3.12 mg/L (≈ 8.65 µM).
Consider `O=C1Nc2c(F)cccc2/C1=N/NC(=S)Nc1cccc(Cl)c1`, for which the MIC was 0.39 mg/L (≈ 1.12 µM) against Staphylococcus aureus [1]; 0.78 mg/L (≈ 2.24 µM) against Staphylococcus aureus [2]; at most 0.78 mg/L in the experiment on Bacillus spizizenii; 1.56 mg/L (≈ 4.47 µM) in the experiment on Enterococcus faecalis [3]; 1.56 mg/L (≈ 4.47 µM) against Enterococcus faecalis [4]; over 100 mg/L in the experiment on Pseudomonas aeruginosa. In addition, the MIC against Klebsiella pneumoniae is over 100 mg/L; in the experiment with Staphylococcus aureus [5], 0.78 mg/L (≈ 2.24 µM); in the experiment on Staphylococcus aureus [6], 1.56 mg/L (≈ 4.47 µM); in the experiment with Staphylococcus aureus [7], 0.78 mg/L (≈ 2.24 µM); in the experiment on Staphylococcus aureus [8], 0.39 mg/L (≈ 1.12 µM); in the experiment with Staphylococcus aureus [9] it was 0.78 mg/L (≈ 2.24 µM). For the same compound, the minimal inhibitory concentration (MIC) was 0.78 mg/L (≈ 2.24 µM) against Staphylococcus aureus [10]; 0.78 mg/L (≈ 2.24 µM) against Staphylococcus aureus [11]; 0.39 mg/L (≈ 1.12 µM) in the experiment with Staphylococcus aureus [12]; 0.78 mg/L (≈ 2.24 µM) with Staphylococcus aureus [13]; 1.56 mg/L (≈ 4.47 µM) in the experiment on Staphylococcus aureus [14].
Consider `COc1ccc(NC(=S)N/N=C2\C(=O)Nc3c(F)cccc32)cc1`, for which the MIC was 1.56 mg/L (≈ 4.53 µM) with Staphylococcus aureus [1]; 3.12 mg/L (≈ 9.06 µM) in the experiment on Staphylococcus aureus [2]; 1.56 mg/L (≈ 4.53 µM) against Bacillus spizizenii; over 100 mg/L in the experiment with Enterococcus faecalis [3]; over 100 mg/L in the experiment with Enterococcus faecalis [4]; over 100 mg/L against Pseudomonas aeruginosa. For the same compound, the minimum inhibitory concentration (MIC) was over 100 mg/L against Klebsiella pneumoniae; 3.12 mg/L (≈ 9.06 µM) against Staphylococcus aureus [5]; 6.25 mg/L (≈ 18.1 µM) against Staphylococcus aureus [6]; 3.12 mg/L (≈ 9.06 µM) in the experiment with Staphylococcus aureus [7]; 3.12 mg/L (≈ 9.06 µM) against Staphylococcus aureus [8]; 3.12 mg/L (≈ 9.06 µM) in the experiment with Staphylococcus aureus [9]. The MIC turned out to be 3.12 mg/L (≈ 9.06 µM) in the experiment with Staphylococcus aureus [10]; 3.12 mg/L (≈ 9.06 µM) in the experiment with Staphylococcus aureus [11]; 1.56 mg/L (≈ 4.53 µM) in the experiment on Staphylococcus aureus [12]; 3.12 mg/L (≈ 9.06 µM) against Staphylococcus aureus [13]; 3.12 mg/L (≈ 9.06 µM) in the experiment on Staphylococcus aureus [14].
On to `O=C1Nc2c(Cl)cccc2/C1=N/NC(=S)Nc1cccc(F)c1`, for which the minimal inhibitory concentration (MIC) was 0.39 mg/L (≈ 1.12 µM) in the experiment with Staphylococcus aureus [1]; 1.56 mg/L (≈ 4.47 µM) against Staphylococcus aureus [2]; at most 0.78 mg/L against Bacillus spizizenii; 3.12 mg/L (≈ 8.95 µM) in the experiment with Enterococcus faecalis [3]; 1.56 mg/L (≈ 4.47 µM) in the experiment on Enterococcus faecalis [4]; over 100 mg/L against Pseudomonas aeruginosa. The minimal inhibitory concentration (MIC) was over 100 mg/L against Klebsiella pneumoniae; 0.78 mg/L (≈ 2.24 µM) with Staphylococcus aureus [5]; 3.12 mg/L (≈ 8.95 µM) in the experiment with Staphylococcus aureus [6]; 1.56 mg/L (≈ 4.47 µM) in the experiment with Staphylococcus aureus [7]; 0.78 mg/L (≈ 2.24 µM) with Staphylococcus aureus [8]; 1.56 mg/L (≈ 4.47 µM) in the experiment on Staphylococcus aureus [9]. Besides, the MIC came to 1.56 mg/L (≈ 4.47 µM) in the experiment on Staphylococcus aureus [10]; 1.56 mg/L (≈ 4.47 µM) in the experiment on Staphylococcus aureus [11]; 0.78 mg/L (≈ 2.24 µM) against Staphylococcus aureus [12]; 1.56 mg/L (≈ 4.47 µM) in the experiment on Staphylococcus aureus [13]; 1.56 mg/L (≈ 4.47 µM) in the experiment with Staphylococcus aureus [14].
In the case of `COc1ccc(NC(=S)N/N=C2\C(=O)Nc3c(Cl)cccc32)cc1`, the minimum inhibitory concentration (MIC) in the experiment with Staphylococcus aureus [1] was 1.56 mg/L (≈ 4.32 µM); against Staphylococcus aureus [2], 6.25 mg/L (≈ 17.3 µM); in the experiment on Bacillus spizizenii, at most 0.78 mg/L; in the experiment on Enterococcus faecalis [3], over 100 mg/L; with Enterococcus faecalis [4], over 100 mg/L; in the experiment on Pseudomonas aeruginosa, over 100 mg/L. Also, the MIC is over 100 mg/L against Klebsiella pneumoniae; 1.56 mg/L (≈ 4.32 µM) with Staphylococcus aureus [5]; 6.25 mg/L (≈ 17.3 µM) in the experiment on Staphylococcus aureus [6]; 3.12 mg/L (≈ 8.65 µM) against Staphylococcus aureus [7]; 1.56 mg/L (≈ 4.32 µM) in the experiment with Staphylococcus aureus [8]; 3.12 mg/L (≈ 8.65 µM) against Staphylococcus aureus [9]. Moreover, the MIC against Staphylococcus aureus [10] is 3.12 mg/L (≈ 8.65 µM); in the experiment with Staphylococcus aureus [11], 3.12 mg/L (≈ 8.65 µM); with Staphylococcus aureus [12], 1.56 mg/L (≈ 4.32 µM); in the experiment with Staphylococcus aureus [13], 3.12 mg/L (≈ 8.65 µM); with Staphylococcus aureus [14] it was 6.25 mg/L (≈ 17.3 µM).
For the compound `COc1ccccc1NC(=S)N/N=C1\C(=O)Nc2c(Br)cccc21`, the minimum inhibitory concentration (MIC) with Staphylococcus aureus [1] is 25 mg/L (≈ 61.7 µM); against Staphylococcus aureus [2], over 100 mg/L; in the experiment on Bacillus spizizenii, 25 mg/L (≈ 61.7 µM); in the experiment with Enterococcus faecalis [3], over 100 mg/L; in the experiment with Enterococcus faecalis [4], over 100 mg/L; in the experiment with Pseudomonas aeruginosa, over 100 mg/L. Moreover, the MIC in the experiment with Klebsiella pneumoniae, against Staphylococcus aureus [5], in the experiment with Staphylococcus aureus [6], against Staphylococcus aureus [7], with Staphylococcus aureus [8] and in the experiment with Staphylococcus aureus [9] was over 100 mg/L throughout. Also, the minimal inhibitory concentration (MIC) with Staphylococcus aureus [10], against Staphylococcus aureus [11], with Staphylococcus aureus [12], in the experiment on Staphylococcus aureus [13] and against Staphylococcus aureus [14] was over 100 mg/L each time.

The values are drawn from ChEMBL document CHEMBL3611970, “Synthesis and evaluation of isatin-β-thiosemicarbazones as novel agents against antibiotic-resistant Gram-positive bacterial species” (2015).
